# From patent US20070060617A1, “2-Methoxy-5(5-trifluoromethyl-tetrazol-1-yl-benzyl)-2s-phenyl-piperdin-3s-yl)-amine for the treatment of social phobia” (priority 2004, published 2007)
# Where a name gives a salt, the structure may show the parent alone.
# Tested on: patients suffering from social phobia (Social Anxiety Disorder)
# Test: double-blind, placebo-controlled study in patients suffering from social phobia (self-report questionnaires, state anxiety measures, verbal performance, PET)
# Assay type: in vivo, human
# Settings: NK1-antagonist group, daily oral dose of 5 mg, administered four weeks
# Excerpt: The first study was a double-blind, placebo-controlled study of the effect of [2-methoxy-5-(5-trifluoromethyl-tetrazol-1-yl-benzyl)]-(2-phenyl-piperidin-3-yl)-amine dihydrochloride in patients suffering from social phobia (otherwise known as Social Anxiety Disorder). Thirty six patients aged between 19 and 48 meeting the DSM-IV criteria for social phobia (as set out in Diagnostic and Statistical Manual of Mental Disorders, 4th Edition, published by the American Psychiatric Association) were selected. […] The effect of [2-methoxy-5(5-trifluoromethyl-tetrazol-1-yl-benzyl)]-(2-phenyl-piperidin-3-yl)-amine dihydrochloride on anxiety symptoms and brain activity in patients diagnosed with social phobia was evaluated using self-report questionnaires (the Social Phobia Scale (SPS), the Social Interaction Anxiety Scale (SIAS), the Personal Report on Confidence as a Speaker (PRCS), the Social Phobia Screening Questionnaire (SPSQ), the Sheehan Disability Inventory (SDI), self-report versions of the Liebowitz Social Anxiety Scale (LSAS-SR) and the Global Assessment of Functioning (GAF) scale), state anxiety measures (the Speilberger state-anxiety inventory (STAI-S), subjective ratings of fear and distress on 0-100 (min-max) scales and heart rate), verbal performance (comparing the number of spoken syllables during the first ten seconds of each videotaped speech) and PET assessments.
smiles,measurement,value
COc1ccc(-n2nnnc2C(F)(F)F)cc1CN[C@H]1CCCN[C@H]1c1ccccc1 [[2-methoxy-5-(5-trifluoromethyl-tetrazol-1-yl-benzyl)]-(2-phenyl-piperidin-3-yl)-amine dihydrochloride],effect compared with placebo,generally superior to placebo
same,improvement of patients with social phobia after short-term treatment,significantly improved
